Experimental data published in patent US9957274B2, “Indane inhibitors of EED and methods of their use” (AbbVie Inc., priority 2016, dated 2018).
Like-named read-outs stand apart in the source and are kept apart here.

Assays:
[1] = molecular target: EED (Homo sapiens, UniProt O75530); test: EED TR-FRET Binding Assay (modified LanthaScreen competition assay)
In short: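 Competition binding in a modified LanthaScreen format, in 20 mM Tris-HCl pH 7.5, 200 mM NaCl, 0.01% Tween-20, 10 uM DTT and 0.05% BSA. Reactions ran 1 hour at 25° C before TR-FRET detection.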

[2] = test system: H3K27me3 in OCILY19 cells; test: H3K27me3 AlphaLISA assay in OCILY19 cells; format: cell-based; details: Homo sapiens, OCI-LY19, 144 h, 6 days with compound, read-out: OCILY-19 IC50
Procedure: (§1) 5,000 cells were plated into each well of 96-well Corning CellBing cell culture plates and incubated overnight at 37° C. in a humidified CO2 incubator. […] The cell culture plates were then incubated for 6 more days. H3K27me3 AlphaLISA assay was performed on the cell culture samples by using AlphaLISAR® H3K27me3 Cellular Detection Kit (PerkinElmer) and 96-well white half-area plates (PerkinElmer).

[3] = test system: H3K27me3 in G401 cells; test: H3K27me3 AlphaLISA assay in G401 cells; format: cell-based; details: Homo sapiens, G-401, 144 h, 6 days with compound
Procedure: as §1, with “G401 cells (ATCC catalog # CRL-1441) were maintained in McCoy's 5a medium (ATCC) supplemented with 10% heat-inactivated FBS (HyClone) at 37° C. in a humidified CO2 incubator. OCILY19 cells (DSMZ catalog #ACC 528) were maintained in IMDM (Invitrogen) supplemented with 10% human serum (Sigma) at 37° C. in a humidified CO2 incubator. 5,000” for “5,000”

[4] = test system: Pfeiffer cells; test: CTG cell viability assay (CellTiter-Glo); format: cell-based; details: Homo sapiens, 240 h
Procedure: 1,000 cells were plated into each well of 96-well Corning CellBing cell culture plates and incubated overnight at 37° C. in a humidified CO2 incubator. […] The cell culture plates were then incubated for 10 more days. CTG cell viability assay was performed on the cell culture samples by using CellTiter-Glo® Luminescent Cell Viability Assay Kit (Promega).

[5] = Pfeiffer cells, 10 days with compound, CellTiter-Glo, read-out: Cell Proliferation IC50

EED, sequence (O75530 whole entry): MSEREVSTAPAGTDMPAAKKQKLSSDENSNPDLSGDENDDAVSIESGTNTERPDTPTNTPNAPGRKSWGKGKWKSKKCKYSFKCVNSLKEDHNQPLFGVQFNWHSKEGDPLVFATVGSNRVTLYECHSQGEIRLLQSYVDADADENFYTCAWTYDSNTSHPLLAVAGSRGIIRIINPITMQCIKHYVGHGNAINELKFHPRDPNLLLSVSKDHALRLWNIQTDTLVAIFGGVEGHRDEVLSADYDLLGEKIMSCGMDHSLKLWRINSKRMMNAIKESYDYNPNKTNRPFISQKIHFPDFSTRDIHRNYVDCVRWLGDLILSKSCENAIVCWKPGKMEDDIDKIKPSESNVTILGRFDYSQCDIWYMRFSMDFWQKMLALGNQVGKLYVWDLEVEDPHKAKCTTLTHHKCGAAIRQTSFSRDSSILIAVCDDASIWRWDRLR

Structure (SMILES) | IC50 [1] | IC50 [2] | IC50 [3] | IC50 [4, 5] | IC50 ([4]; Pfeiffer, read-out: Cell Proliferation IC50 (uM))
CN(C)C(=O)Cn1cc(-c2ccc([C@@H]3CN(C4CCc5cccc(F)c54)C[C@H]3N(C)C)cn2)cn1 (mixture of isomers) [Example 159, rac-2-(4-{5-[(3R,4S)-4-(dimethylamino)-1-(7-fluoro-2,3-dihydro-1H-inden-1-yl)pyrrolidin-3-yl]pyridin-2-yl}-1H-pyrazol-1-yl)-N,N-dimethylacetamide] | 1.14 nM | 237 nM | 158 nM | 0.246 µM | –
CN(C)C(=O)N1CCN(c2cccc3c([C@H]4CN(C5CCc6cccc(F)c65)C[C@@H]4N(C)C)cn(C)c23)CC1 (mixture of isomers) [Example 131, rac-4-{3-[(3S,4R)-4-(dimethylamino)-1-(7-fluoro-2,3-dihydro-1H-inden-1-yl)pyrrolidin-3-yl]-1-methyl-1H-indol-7-yl}-N,N-dimethylpiperazine-1-carboxamide] | 0.406 nM | 158 nM | 57.3 nM | 0.122 µM | –
CN(C)[C@H]1CN(C2CCc3cccc(F)c32)C[C@@H]1c1cn(C)c2cc(C(=O)N3CC(O)C3)ccc12 (mixture of isomers) [Example 107, rac-{3-[(3S,4R)-4-(dimethylamino)-1-(7-fluoro-2,3-dihydro-1H-inden-1-yl)pyrrolidin-3-yl]-1-methyl-1H-indol-6-yl}(3-hydroxyazetidin-1-yl)methanone] | 1.08 nM | 497 nM | 84 nM | 0.284 µM | –
CN(C)[C@@H]1CN(C2CCc3cccc(F)c32)C[C@H]1c1ccc(N2CCN(C(=O)CS(N)(=O)=O)CC2)nc1 (mixture of isomers) [Example 160, rac-2-(4-{5-[(3R,4S)-4-(dimethylamino)-1-(7-fluoro-2,3-dihydro-1H-inden-1-yl)pyrrolidin-3-yl]pyridin-2-yl}piperazin-1-yl)-2-oxoethane-1-sulfonamide] | 1.06 nM | 152 nM | 190 nM | 0.301 µM | –
CN(C)[C@H]1CN(C2CCc3cccc(F)c32)C[C@@H]1c1cn(C)c2c(C(=O)N3CCN(S(=O)(=O)c4cncn4C)CC3)cccc12 (mixture of isomers) [Example 135, rac-{3-[(3S,4R)-4-(dimethylamino)-1-(7-fluoro-2,3-dihydro-1H-inden-1-yl)pyrrolidin-3-yl]-1-methyl-1H-indol-7-yl}[4-(1-methyl-1H-imidazole-5-sulfonyl)piperazin-1-yl]methanone] | 1.45 nM | 719 nM | 108 nM | 0.115 µM | –
CN(C)[C@H]1CN(C2CCc3cccc(F)c32)C[C@@H]1c1cn(C)c2c(C(=O)N3C[C@H](O)[C@@H](O)C3)cccc12 (mixture of isomers) [Example 113, rac-[(3S,4S)-3,4-dihydroxypyrrolidin-1-yl]{3-[(3S,4R)-4-(dimethylamino)-1-(7-fluoro-2,3-dihydro-1H-inden-1-yl)pyrrolidin-3-yl]-1-methyl-1H-indol-7-yl}methanone] | 0.679 nM | 3280 nM | 799 nM | 0.399 µM | –
CNC(=O)Cn1cc(-c2ccc([C@H]3CN(C4CCc5cccc(F)c54)C[C@@H]3N(C)C)cc2)cn1 (mixture of isomers) [Example 72, rac-2-(4-{4-[(3S,4R)-4-(dimethylamino)-1-(7-fluoro-2,3-dihydro-1H-inden-1-yl)pyrrolidin-3-yl]phenyl}-1H-pyrazol-1-yl)-N-methylacetamide] | 0.923 nM | 132 nM | 39.9 nM | 0.121 µM | –
CN(C)[C@H]1CN(C2CCc3cccc(F)c32)C[C@@H]1c1cn(C)c2c(C(=O)N3CC(F)C3)cccc12 (mixture of isomers) [Example 103, rac-{3-[(3S,4R)-4-(dimethylamino)-1-(7-fluoro-2,3-dihydro-1H-inden-1-yl)pyrrolidin-3-yl]-1-methyl-1H-indol-7-yl}(3-fluoroazetidin-1-yl)methanone] | 1.01 nM | 183 nM | 30.6 nM | 0.0648 µM | –
CN(C)[C@@H]1CN(C2CCc3cccc(F)c32)C[C@H]1c1ccc(N2CCN(C(=O)CS(C)(=O)=O)CC2)nc1 (mixture of isomers) [Example 157, rac-1-(4-{5-[(3R,4S)-4-(dimethylamino)-1-(7-fluoro-2,3-dihydro-1H-inden-1-yl)pyrrolidin-3-yl]pyridin-2-yl}piperazin-1-yl)-2-(methanesulfonyl)ethan-1-one] | 1.4 nM | 205 nM | 227 nM | 0.354 µM | –
CC(=O)N1CCN(c2ccc([C@H]3CN([C@H]4CCc5cccc(F)c54)C[C@@H]3N(C)C)cc2)CC1 [Example 45, 1-[4-(4-{(3S,4R)-4-(dimethylamino)-1-[(1S)-7-fluoro-2,3-dihydro-1H-inden-1-yl]pyrrolidin-3-yl}phenyl)piperazin-1-yl]ethan-1-one] | 0.303 nM | 43.3 nM | 31.1 nM | – | 0.0284 µM
CN(C)[C@H]1CN(C2CCc3cccc(F)c32)C[C@@H]1c1cn(C)c2c(C(=O)N3CCNCC3)cccc12 (mixture of isomers) [Example 119, rac-{3-[(3S,4R)-4-(dimethylamino)-1-(7-fluoro-2,3-dihydro-1H-inden-1-yl)pyrrolidin-3-yl]-1-methyl-1H-indol-7-yl}(piperazin-1-yl)methanone] | 1.99 nM | 214 nM | 120 nM | 0.247 µM | –
CN(C)[C@@H]1CN(C2CCc3cccc(F)c32)C[C@H]1c1ccc(Br)cc1 (mixture of isomers) [Example 6, rac-(3S,4R)-4-(4-bromophenyl)-1-(7-fluoro-2,3-dihydro-1H-inden-1-yl)-N,N-dimethylpyrrolidin-3-amine] | 4.77 nM | 1760 nM | 244 nM | 3.3 µM | –
CN(C)[C@H]1CN(C2CCc3cccc(F)c32)C[C@@H]1c1cn(C)c2c(C(=O)N3CCN(S(=O)(=O)N(C)C)CC3)cccc12 (mixture of isomers) [Example 124, rac-4-{3-[(3S,4R)-4-(dimethylamino)-1-(7-fluoro-2,3-dihydro-1H-inden-1-yl)pyrrolidin-3-yl]-1-methyl-1H-indole-7-carbonyl}-N,N-dimethylpiperazine-1-sulfonamide] | 1.56 nM | 207 nM | 86.4 nM | 0.349 µM | –

More lines, main results first:

IC50 [1] | IC50 [2] | IC50 [3] | Structure (SMILES) | IC50 [4, 5] | IC50 ([4]; Pfeiffer, read-out: Cell Proliferation IC50 (uM))
0.906 nM | 3170 nM | 2300 nM | CN(C)[C@@H]1CN(C2CCc3cccc(F)c32)C[C@H]1c1ccc(N2CCN(c3ccccn3)CC2)cc1 (mixture of isomers) [Example 75, rac-(3S,4R)-1-(7-fluoro-2,3-dihydro-1H-inden-1-yl)-N,N-dimethyl-4-{4-[4-(pyridin-2-yl)piperazin-1-yl]phenyl}pyrrolidin-3-amine] | 1.76 µM | –
2.58 nM | 1140 nM | 636 nM | CN(C)[C@H]1CN(C2CCc3cccc(F)c32)C[C@@H]1C1CCN(c2cccnc2)CC1 (mixture of isomers) [Example 149, rac-(3R,4S)-1-(7-fluoro-2,3-dihydro-1H-inden-1-yl)-N,N-dimethyl-4-[1-(pyridin-3-yl)piperidin-4-yl]pyrrolidin-3-amine] | 0.97 µM | –
2.85 nM | 944 nM | 449 nM | COC(=O)c1ccc([C@@H]2CN(C3CCc4cccc(F)c43)C[C@H]2N(C)C)cc1 (mixture of isomers) [Example 22, rac-methyl 4-[(3R,4S)-4-(dimethylamino)-1-(7-fluoro-2,3-dihydro-1H-inden-1-yl)pyrrolidin-3-yl]benzoate] | 0.422 µM | –
0.633 nM | 363 nM | 185 nM | CN(C)[C@@H]1CN(C2CCc3cccc(F)c32)C[C@H]1c1ccc(N2CCN(c3ccncn3)CC2)cc1 (mixture of isomers) [Example 74, rac-(3S,4R)-1-(7-fluoro-2,3-dihydro-1H-inden-1-yl)-N,N-dimethyl-4-{4-[4-(pyrimidin-4-yl)piperazin-1-yl]phenyl}pyrrolidin-3-amine] | 0.107 µM | –
6.08 nM | 3120 nM | 3190 nM | CN(C)[C@@H]1CN(C2CCc3cccc(F)c32)C[C@H]1c1ccc(Cl)cc1 (mixture of isomers) [Example 7, rac-(3S,4R)-4-(4-chlorophenyl)-1-(7-fluoro-2,3-dihydro-1H-inden-1-yl)-N,N-dimethylpyrrolidin-3-amine] | 2.34 µM | –
0.454 nM | 275 nM | 228 nM | CN(C)[C@H]1CN(C2CCc3cccc(F)c32)C[C@@H]1C1CCN(c2ccc(C(N)=O)cc2)CC1 (mixture of isomers) [Example 166, rac-4-{4-[(3S,4R)-4-(dimethylamino)-1-(7-fluoro-2,3-dihydro-1H-inden-1-yl)pyrrolidin-3-yl]piperidin-1-yl}benzamide] | 0.129 µM | –
